Measurements from US10183021B2, “sGC stimulators” (Ironwood Pharmaceuticals, Inc., priority 2013, dated 2019).

target: soluble guanylate cyclase (sGC) (Homo sapiens (Human), UniProt Q02108+Q02153); test: sGC-HEK-cGMP assay, new protocol with DETA-NONOate, LC/MS detection (Example 2C); assay type: cell-based; conditions: read-out: Absolute EC50 (uM) - binned
Protocol: Human embryonic kidney cells (HEK293), endogenously expressing soluble guanylate cyclase (sGC), were used to evaluate the activity of test compounds. Compounds stimulating the sGC enzyme should cause an increase in the intracellular concentration of cGMP. HEK 293 cells were seeded in Dulbecco's Modification of Eagle's Medium supplemented with fetal bovine serum (10% final) and penicillin (100 U/mL)/streptomycin (100 μg/mL) in a 50 μL volume at a density of 1.5×10^4 cells/well in a poly-D-lysine coated 384 well flat bottom plate. Cells were incubated overnight at 37° C. in a humidified chamber with 5% CO2. Medium was aspirated and cells were washed with 1× Hank's Buffered Saline Salt Solution (50 μL). Cells were then incubated for 15 minutes at 37° C. with 50 μL of a 0.5 mM 3-isobutyl-1-methylxanthine (IBMX) solution. Test article and Diethylenetriamine NONOate (DETA-NONOate) solutions (x μM concentration for test article solution and 10 μM concentration for DETA-NONOate solution; wherein x is one of the following concentrations);
were then added to the assay mixture and the resulting mixture incubated at 37° C. for 20 minutes. After the 20 minute incubation, the assay mixture was aspirated and 10% acetic acid containing 150 ng/mL+3-cGMP (internal standard for LCMS) (50 μL) was added to the cells. The plate was incubated at 4° C. for 30 minutes in the acetic acid solution to stop the reaction and lyse the cells. The plates were then centrifuged at 1,000 g for 3 minutes at 4° C. and the supernatant transferred to a clean reaction plate for LCMS analysis.
cGMP concentrations were determined from each sample using the LCMS conditions below (Table 5) and calculated standard curve.
Data were normalized to a high control using the following equation: 100*(Sample−Low Control)/(High Control−Low Control), where the low control is the average of 16 samples treated with 1% DMSO, and the high control is the average of 16 samples treated with 30 μM of 1-329 Data were fit using a 4-parameter fit (log(agonist) vs. response—variable slope) using GraphPad Prism Software v.5. n=2 for all compounds. […] Compounds failing to elicit a minimum response of 50% are reported as >30 μM.

soluble guanylate cyclase (sGC), sequence (Q02153 whole entry): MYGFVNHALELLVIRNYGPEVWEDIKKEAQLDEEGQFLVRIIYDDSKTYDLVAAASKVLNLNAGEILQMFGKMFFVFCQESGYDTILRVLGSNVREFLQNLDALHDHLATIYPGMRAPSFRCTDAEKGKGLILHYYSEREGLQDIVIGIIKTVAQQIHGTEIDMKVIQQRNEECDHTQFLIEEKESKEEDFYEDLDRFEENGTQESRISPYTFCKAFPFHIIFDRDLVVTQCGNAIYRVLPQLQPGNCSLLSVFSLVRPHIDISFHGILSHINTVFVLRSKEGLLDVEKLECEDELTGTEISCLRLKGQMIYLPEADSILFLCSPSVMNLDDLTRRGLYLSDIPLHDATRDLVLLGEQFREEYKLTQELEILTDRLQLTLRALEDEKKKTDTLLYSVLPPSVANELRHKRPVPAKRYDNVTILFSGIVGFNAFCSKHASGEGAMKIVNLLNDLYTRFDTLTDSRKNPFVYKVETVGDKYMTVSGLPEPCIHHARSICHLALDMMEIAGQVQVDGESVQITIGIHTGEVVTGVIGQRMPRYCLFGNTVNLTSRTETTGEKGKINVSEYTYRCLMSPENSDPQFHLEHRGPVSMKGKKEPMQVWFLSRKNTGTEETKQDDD
soluble guanylate cyclase (sGC), sequence (Q02108 whole entry): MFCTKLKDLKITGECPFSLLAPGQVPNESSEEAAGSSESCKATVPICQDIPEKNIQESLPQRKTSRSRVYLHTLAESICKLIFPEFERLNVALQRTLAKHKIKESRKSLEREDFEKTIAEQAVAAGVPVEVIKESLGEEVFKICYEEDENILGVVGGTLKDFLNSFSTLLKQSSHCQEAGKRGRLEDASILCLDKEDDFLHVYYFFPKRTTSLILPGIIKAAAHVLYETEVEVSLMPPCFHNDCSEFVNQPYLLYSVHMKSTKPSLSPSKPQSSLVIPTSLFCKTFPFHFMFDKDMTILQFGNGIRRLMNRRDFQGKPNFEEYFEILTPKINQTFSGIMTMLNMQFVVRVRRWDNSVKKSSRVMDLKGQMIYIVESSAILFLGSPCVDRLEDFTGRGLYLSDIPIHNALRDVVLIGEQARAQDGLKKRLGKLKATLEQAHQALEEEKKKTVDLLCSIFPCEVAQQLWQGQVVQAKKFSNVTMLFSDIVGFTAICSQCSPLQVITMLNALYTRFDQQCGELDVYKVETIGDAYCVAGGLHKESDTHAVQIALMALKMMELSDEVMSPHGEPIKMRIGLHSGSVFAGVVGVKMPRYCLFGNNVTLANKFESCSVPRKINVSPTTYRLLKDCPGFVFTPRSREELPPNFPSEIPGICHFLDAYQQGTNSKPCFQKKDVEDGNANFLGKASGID

Row | Structure (SMILES) | EC50
1 | O=C1NCC[C@@H]1Nc1nc(-c2cc(-c3ccon3)n(Cc3ccccc3F)n2)ncc1F [Compound I-356] | 0.101 to 1 µM
2 | O=C(Nc1ccnc(-c2cc(-c3ccon3)n(Cc3ccccc3F)n2)n1)C1CCOCC1 [Compound I-574] | 0.101 to 1 µM
3 | OCC(O)(CNc1nc(-c2cc(-c3ccon3)n(Cc3ccccc3F)n2)ncc1F)C(F)(F)F (stereo not drawn) [Compound I-355] | < 0.1 µM
4 | Cc1cc(-c2ncc(F)c(N3CCC[C@H](C)[C@@H]3C(=O)O)n2)nn1Cc1ccccc1F [Compound I-412] | > 1 µM
5 | CN(CC1(C(=O)O)CC1)c1nc(-c2cc(C(N)=O)n(Cc3ccccc3F)n2)ncc1F [Compound I-481] | > 1 µM
6 | OCC(Nc1nc(-c2cc(-c3ccon3)n(Cc3ccccc3F)n2)ncc1F)C(F)(F)F (stereo not drawn) [Compound I-404] | 0.101 to 1 µM
7 | O=C(O)C12CC(Nc3nc(-c4cc(-c5ccon5)n(Cc5ccccc5F)n4)ncc3F)(C1)C2 [Compound I-269] | > 1 µM
8 | CC1(C(=O)NC2CC2)CCN(c2nc(-c3cc(-c4ccon4)n(Cc4ccccc4F)n3)ncc2F)C1=O (stereo not drawn) [Compound I-605] | 0.101 to 1 µM
9 | O=C(O)C12CC1CN(c1nc(-c3cc(-c4ccon4)n(Cc4ccccc4F)n3)ncc1F)C2 (stereo not drawn) [Compound I-312] | 0.101 to 1 µM
10 | O=C(Nc1ccnc(-c2cc(-c3ccon3)n(Cc3ccccc3F)n2)n1)c1ccncn1 [Compound I-555] | > 1 µM
11 | O=C1CCS(=O)(=O)N1c1nc(-c2cc(-c3ccon3)n(Cc3ccccc3F)n2)ncc1F [Compound I-612] | < 0.1 µM
12 | O=C(Nc1ccnc(-c2cc(-c3ccon3)n(Cc3ccccc3F)n2)n1)[C@H](O)C(F)(F)F [Compound I-326] | 0.101 to 1 µM
13 | COC(=O)NCC(=O)Nc1ccnc(-c2cc(-c3ccon3)n(Cc3ccccc3F)n2)n1 [Compound I-603] | 0.101 to 1 µM
14 | NC(=O)CNc1nc(-c2cc(-c3ccon3)n(CCC(F)(F)F)n2)ncc1F [Compound I-511] | > 1 µM
15 | OC[C@@H]1[C@H](O)CCN1c1nc(-c2cc(-c3ccon3)n(Cc3ccccc3F)n2)ncc1F [Compound I-430] | < 0.1 µM
16 | CS(=O)(=O)C1(CNc2nc(-c3cc(-c4ccon4)n(Cc4ccccc4F)n3)ncc2F)CC1 [Compound I-545] | < 0.1 µM
17 | O=C(Nc1nc(-c2cc(-c3ccon3)n(Cc3ccccc3F)n2)ncc1F)C1(C(F)(F)F)CC1 [Compound I-415] | > 1 µM
18 | O=C(Nc1ccnc(-c2cc(-c3ccon3)n(Cc3ccccc3F)n2)n1)c1cnco1 [Compound I-556] | > 1 µM
19 | O=C(N1CC(Nc2nc(-c3cc(-c4ccon4)n(Cc4ccccc4F)n3)ncc2F)C1)C1(O)CC1 [Compound I-470] | < 0.1 µM
20 | NS(=O)(=O)Nc1ccnc(-c2cc(-c3ccon3)n(Cc3ccccc3F)n2)n1 [Compound I-456] | 0.101 to 1 µM
21 | O=S(=O)(Nc1nc(-c2cc(-c3ccon3)n(Cc3ccccc3F)n2)ncc1F)c1ccc(F)cc1 [Compound I-624] | 0.101 to 1 µM

Row | Structure (SMILES) | EC50
22 | CCOC(=O)C1=C(O)CN(c2nc(-c3cc(-c4ccon4)n(Cc4ccccc4F)n3)ncc2F)CC1 [Compound I-378] | < 0.1 µM
23 | COc1cc(C(=O)Nc2ccnc(-c3cc(-c4ccon4)n(Cc4ccccc4F)n3)n2)on1 [Compound I-554] | > 1 µM
24 | O=C(Cn1cnc2ccccc2c1=O)Nc1ccnc(-c2cc(-c3ccon3)n(Cc3ccccc3F)n2)n1 [Compound I-601] | > 1 µM
25 | C[C@@H]1[C@H](C(=O)O)CCCN1c1nc(-c2cc(-c3ccon3)n(Cc3ccccc3F)n2)ncc1F [Compound I-310] | < 0.1 µM
26 | O=C1CCC(=O)N1c1nc(-c2cc(-c3ccon3)n(Cc3ccccc3F)n2)ncc1F [Compound I-533] | 0.101 to 1 µM
27 | OCC(CO)Nc1cnnc(-c2cc(-c3ccon3)n(Cc3ccccc3F)n2)n1 [Compound I-416] | > 1 µM
28 | O=C(Nc1ccnc(-c2cc(-c3ccon3)n(Cc3ccccc3F)n2)n1)c1ccccc1O [Compound I-577] | 0.101 to 1 µM
29 | O=C(O)C(O)(CNc1nc(-c2cc(-c3ccon3)n(Cc3ccccc3F)n2)ncc1F)C(F)(F)F (stereo not drawn) [Compound I-467] | > 1 µM
30 | CC1(C(=O)O)CCCN(c2nc(-c3cc(-c4ccon4)n(Cc4ccccc4F)n3)ncc2F)C1 (stereo not drawn) [Compound I-406] | < 0.1 µM
31 | O[C@@H]1[C@H](O)CN(c2nc(-c3cc(-c4ccon4)n(Cc4ccccc4F)n3)ncc2F)C[C@@H]1O [Compound I-347] | < 0.1 µM
32 | Fc1ccccc1Cn1nc(-c2ncc(F)c(NCc3nnc(C(F)(F)F)o3)n2)cc1-c1ccon1 [Compound I-608] | < 0.1 µM
33 | OC1(CNc2nc(-c3cc(-c4ccon4)n(Cc4ccccc4F)n3)ncc2F)CCOCC1 [Compound I-397] | < 0.1 µM
34 | COCC(=O)Nc1ccnc(-c2cc(-c3ccon3)n(Cc3ccccc3F)n2)n1 [Compound I-528] | > 1 µM
35 | C[C@H]1CCCN(c2nc(-c3cc(-c4ccon4)n(Cc4ccccc4F)n3)ncc2F)[C@@H]1C(=O)NS(=O)(=O)C1CC1 [Compound I-332] | < 0.1 µM
36 | NC(=O)C(Nc1nc(-c2cc(-c3ccon3)n(Cc3ccccc3F)n2)ncc1F)C(F)(F)F (stereo not drawn) [Compound I-540] | 0.101 to 1 µM
37 | CCOC(=O)C1(C)C(=O)Nc2cnc(-c3cc(-c4ccon4)n(Cc4ccccc4F)n3)nc21 (stereo not drawn) [Compound I-617] | > 1 µM
38 | OCC1(Nc2nc(-c3cc(-c4ccon4)n(Cc4ccccc4F)n3)ncc2F)CC1 [Compound I-502] | 0.101 to 1 µM
39 | O=C(Nc1ccnc(-c2cc(-c3ccon3)n(Cc3ccccc3F)n2)n1)c1cocn1 [Compound I-532] | > 1 µM
40 | O=C(CO)N(CC(F)(F)F)c1nc(-c2cc(-c3ccon3)n(Cc3ccccc3F)n2)ncc1F [Compound I-566] | 0.101 to 1 µM
41 | CC(C)[C@@H](Nc1nc(-c2cc(-c3ccon3)n(Cc3ccccc3F)n2)ncc1F)C(N)=O [Compound I-536] | < 0.1 µM
42 | CC(C)[C@H](Nc1nc(-c2cc(-c3ccon3)n(Cc3ccccc3F)n2)ncc1F)C(N)=O [Compound I-537] | < 0.1 µM

Row | Structure (SMILES) | EC50
43 | OC1(CNc2nc(-c3cc(-c4ccon4)n(Cc4ccccc4F)n3)ncc2F)CNC1 [Compound I-353] | > 1 µM
44 | O=C1CC(C(=O)Nc2ccnc(-c3cc(-c4ccon4)n(Cc4ccccc4F)n3)n2)CN1 (stereo not drawn) [Compound I-464] | 0.101 to 1 µM
45 | CC(=O)O[C@@H](C(=O)Nc1ccnc(-c2cc(-c3ccon3)n(Cc3ccccc3F)n2)n1)C(F)(F)F [Compound I-475] | 0.101 to 1 µM
46 | OC[C@H]1CCN(c2nc(-c3cc(-c4ccon4)n(Cc4ccccc4F)n3)ncc2F)[C@@H](CO)C1 [Compound I-318] | < 0.1 µM
47 | OC(CNc1nc(-c2cc(-c3ccon3)n(CCC(F)(F)F)n2)ncc1F)(C(F)(F)F)C(F)(F)F [Compound I-516] | > 1 µM
48 | CS(=O)(=O)CCC(Nc1nc(-c2cc(-c3ccon3)n(Cc3ccccc3F)n2)ncc1F)C(F)(F)F (stereo not drawn) [Compound I-588] | 0.101 to 1 µM
49 | O=S(=O)(NC1(CNc2nc(-c3cc(-c4ccon4)n(Cc4ccccc4F)n3)ncc2F)CC1)C(F)(F)F [Compound I-354] | < 0.1 µM
50 | Fc1ccccc1Cn1nc(-c2ncc(F)c(NCCSC(F)(F)F)n2)cc1-c1ccon1 [Compound I-509] | < 0.1 µM
51 | CNC(=O)C(C)(O)CN(C)c1nc(-c2cc(-c3ccon3)n(Cc3ccccc3F)n2)ncc1F (stereo not drawn) [Compound I-382] | < 0.1 µM
52 | NC(=O)C1CC(=O)N(c2nc(-c3cc(-c4ccon4)n(Cc4ccccc4F)n3)ncc2F)C1 (stereo not drawn) [Compound I-590] | > 1 µM
53 | CC(C)(C(=O)Nc1ccnc(-c2cc(-c3ccon3)n(Cc3ccccc3F)n2)n1)S(C)(=O)=O [Compound I-580] | 0.101 to 1 µM
54 | O=S(=O)(CCNc1nc(-c2cc(-c3ccon3)n(Cc3ccccc3F)n2)ncc1F)NCC(F)(F)F [Compound I-381] | < 0.1 µM
55 | Cc1cc(-c2ncc(F)c(NC(CO)CO)n2)nn1Cc1ccccc1F [Compound I-413] | > 1 µM
56 | NC(=O)[C@](O)(CNc1nc(-c2cc(-c3ccon3)n(Cc3ccccc3F)n2)ncc1F)C(F)(F)F [Compound I-531] | < 0.1 µM
57 | NC(CNc1nc(-c2cc(-c3ccon3)n(Cc3ccccc3F)n2)ncc1F)C(F)(F)F (stereo not drawn) [Compound I-518] | < 0.1 µM
58 | O=C(Nc1ccnc(-c2cc(-c3ccon3)n(Cc3ccccc3F)n2)n1)c1cc[nH]n1 [Compound I-386] | > 1 µM
59 | NCC(O)CNc1nc(-c2cc(-c3ccon3)n(Cc3ccccc3F)n2)ncc1F (stereo not drawn) [Compound I-348] | > 1 µM
60 | CC1(C)CCC(=O)N1c1nc(-c2cc(-c3ccon3)n(Cc3ccccc3F)n2)ncc1F [Compound I-512] | > 1 µM
61 | O=C(O)C(CC(F)F)Nc1nc(-c2cc(-c3ccon3)n(Cc3ccccc3F)n2)ncc1F (stereo not drawn) [Compound I-398] | > 1 µM
62 | CCN(CC1(C(=O)O)CC1)c1nc(-c2cc(-c3ccon3)n(Cc3ccccc3F)n2)ncc1F [Compound I-409] | < 0.1 µM
63 | O=C(CNC(=O)OCc1ccccc1)Nc1ccnc(-c2cc(-c3ccon3)n(Cc3ccccc3F)n2)n1 [Compound I-598] | > 1 µM
